Where two headings read alike, the source gives them in different places.
Assays:
C57BL/6J mice [1] = assay: Head twitch response (HTR) in mice; assay type: in vivo, mouse; settings: for HTR (total events) Mean: 30 min; for ED50: Mus musculus, sc; for HTR ♀ Emax (95% CI) / HTR ♂ Emax (95% CI): top of regression fit
Protocol: Each drug was tested using groups of 12 mice per sex (i.e., 24 total mice per drug). Experimental sessions were conducted once every 1–2 weeks for 2 months per drug. Experimental sessions were spaced apart by at least 1 week to minimize the potential for tolerance to drug effects (Canal and Morgan [2012]; Darmani et al. [1990a]; de la Fuente Revenga et al. [2022]). Experiments were conducted during the light phase (1300–1700 local time; lights on = 0700 in a 12/12 light/dark cycle).
(§1) At 1–2 weeks prior to the beginning of experiments, mice were habituated to handling and receiving s.c. saline injections. On the day of an experiment, mice were acclimated to the testing room in their home cage for at least 30 min prior to the start of sessions. Prior to each session, mice were weighed, and resting body temperatures were recorded. Mice were then placed into experimental chambers for acclimation. Behavioral testing was carried out in TruScan mouse locomotor arenas equipped with photobeam arrays (Coulbourn Instruments, Holliston, MA, USA) that were modified with cylindrical inserts and transparent flooring to aid in semi-automated HTR detection as previously described (Glatfelter et al. [2022a]). After 5 min of acclimation, basal body temperature was recorded followed by s.c. injection of drug or vehicle, and mice were returned to test chambers for 30 min. Dose ranges for each drug were 0.03–10 mg/kg for DOI, 0.03–10 mg/kg for psilocybin, and 0.003–1 mg/kg for LSD. Mice were randomly assigned to specific doses at the beginning of the experiment and received different doses at each session.
(§2) During each session, locomotor activity was quantified via photobeam tracking of distance traveled in cm. Overhead GoPro Hero Black 7 video recordings (120 fps, 960p resolution) were analyzed using a commercially available software package from Clever Sys Inc. (Reston, VA, USA) for the measurement of HTR activity. Mouse body temperature was also collected post-session to calculate temperature change values (basal - post session temperature reading).
(§3) Concentration-response data were fit to a single site non-linear regression model. For the HTR studies, potencies were determined from the ascending limb of the dose-response curves using ED50 potency values from [agonist] vs. response (variable slope, four parameter) least squares fit non-linear regression analyses, whereas efficacy was defined by the top output parameter or Emax from the aforementioned analyses. […] Best-fit values for ED50 and Emax from non-linear regression analyses were compared by extra sum-of-squares F tests. Mean effects for each behavioral endpoint were compared using two-way ANOVA (dose x sex), followed by Sidak’s multiple comparisons post-hoc test. Mean effects for pooled mouse behavioral data were compared via Welch’s ANOVA with Dunnett’s T3 post-hoc test, comparing all doses to saline vehicle controls (0 mg/kg). Alpha was set to 0.05 for all analyses.

C57BL/6J mice [2] = assay: Body temperature change in mice; assay type: in vivo, mouse; settings: post 30 min session
Protocol: All mice were injected s.c. with temperature transponders (14 × 2 mm, model IPTT-300, Avidity Science, Waterford Wisconsin, USA) under brief isoflurane immobilization, and were given at least 1 week to recover (Glatfelter et al. [2022b]). Mice were single housed post-implant, and for the duration of the experiments, to protect their devices from being removed by cage mates. Temperature was measured noninvasively using a handheld reader which is sensitive to the transponder signals.
as §1, §2, §3

C57BL/6J mice [3] = assay: Locomotor activity (distance traveled) in mice; assay type: in vivo, mouse; settings: for Locomotor Activity (cm) Mean: 30 min
Protocol: as §1, §2, §3

C57BL/6J mice [4] = settings: range over Table 1 and earlier studies; ref Glatfelter et al. [2022b], Sherwood et al. [2020]; cited from earlier work
5-HT2A = molecular target: T1, 5-HT2A (Mus musculus, UniProt P35363); assay: Competition binding vs [3H]M100907 in mouse brain membranes
T1 construct: tissue BioIVT; host or cells: whole C57BL/6 mouse brain minus cerebellum, male and female
Protocol: (§4) Competition binding studies were conducted in mouse brain tissue as previously described (Glatfelter et al. [2022b]). Briefly, the experiments utilized membranes prepared from whole C57BL/6 mouse brain minus cerebellum (BioIVT, Westbury, NY, USA). […] We assessed the ability of test drugs to compete for [^3H]M100907 binding at 5-HT2A (1 nM) or [^3H]8-OH-DPAT binding at 5-HT1A (0.5 nM). Radioligands were purchased commercially (PerkinElmer, Boston, MA, USA). Nonspecific binding was determined using 10 µM ketanserin for 5-HT2A and serotonin for 5-HT1A. All data represent 3 experiments performed in triplicate.
as §3

5-HT1A = molecular target: T2, 5-HT1A (Mus musculus, UniProt Q64264); assay: Competition binding vs [3H]8-OH-DPAT in mouse brain membranes
T2 construct: tissue BioIVT; host or cells: whole C57BL/6 mouse brain minus cerebellum, male and female
T2 sequence (Q64264 1-421): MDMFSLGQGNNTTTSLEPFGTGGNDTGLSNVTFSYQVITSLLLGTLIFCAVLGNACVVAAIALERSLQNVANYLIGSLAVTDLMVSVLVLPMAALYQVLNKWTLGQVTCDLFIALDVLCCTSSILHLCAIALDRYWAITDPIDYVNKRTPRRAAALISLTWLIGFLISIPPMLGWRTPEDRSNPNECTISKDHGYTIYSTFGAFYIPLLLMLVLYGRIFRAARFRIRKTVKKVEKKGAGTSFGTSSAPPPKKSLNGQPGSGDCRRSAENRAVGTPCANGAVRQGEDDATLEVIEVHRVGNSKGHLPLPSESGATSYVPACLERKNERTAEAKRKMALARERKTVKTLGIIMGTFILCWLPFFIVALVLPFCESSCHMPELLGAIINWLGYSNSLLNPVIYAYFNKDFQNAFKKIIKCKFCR
Protocol: as §4, §3

T1 sequence (P35363 whole entry): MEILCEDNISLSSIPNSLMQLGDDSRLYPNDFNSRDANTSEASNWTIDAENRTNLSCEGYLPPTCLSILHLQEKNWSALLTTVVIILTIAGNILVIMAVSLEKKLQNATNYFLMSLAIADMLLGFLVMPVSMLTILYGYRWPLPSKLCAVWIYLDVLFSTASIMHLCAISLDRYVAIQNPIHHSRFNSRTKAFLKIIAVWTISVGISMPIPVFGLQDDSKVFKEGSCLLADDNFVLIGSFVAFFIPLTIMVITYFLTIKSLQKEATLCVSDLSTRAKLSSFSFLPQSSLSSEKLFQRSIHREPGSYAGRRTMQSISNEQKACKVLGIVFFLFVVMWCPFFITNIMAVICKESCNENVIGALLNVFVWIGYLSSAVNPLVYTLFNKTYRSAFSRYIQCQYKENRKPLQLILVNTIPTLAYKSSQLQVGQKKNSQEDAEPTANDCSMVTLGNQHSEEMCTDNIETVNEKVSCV

CN(C)CCc1c[nH]c2cccc(OP(=O)(O)O)c12 [Psilocybin, 4-phosphoryloxy-N,N-dimethyltryptamine]
HTR (total events) Mean (C57BL/6J mice [1]; 0.03 mg/kg s.c., female mice): 8.0 total events | HTR (total events) Mean (C57BL/6J mice [1]; 0.03 mg/kg s.c., male mice): 7.6 total events | HTR (total events) Mean (C57BL/6J mice [1]; 0.03 mg/kg s.c., pooled sexes): 7.8 total events | HTR (total events) Mean (C57BL/6J mice [1]; 0.1 mg/kg s.c., female mice): 11.8 total events | HTR (total events) Mean (C57BL/6J mice [1]; 0.1 mg/kg s.c., male mice): 13.0 total events | HTR (total events) Mean (C57BL/6J mice [1]; 0.1 mg/kg s.c., pooled sexes): 12.4 total events | HTR (total events) Mean (C57BL/6J mice [1]; 0.3 mg/kg s.c., female mice): 27.3 total events | HTR (total events) Mean (C57BL/6J mice [1]; 0.3 mg/kg s.c., male mice): 26.8 total events | HTR (total events) Mean (C57BL/6J mice [1]; 0.3 mg/kg s.c., pooled sexes): 27.1 total events | HTR (total events) Mean (C57BL/6J mice [1]; 1 mg/kg s.c., female mice): 30.2 total events | HTR (total events) Mean (C57BL/6J mice [1]; 1 mg/kg s.c., male mice): 39.2 total events | HTR (total events) Mean (C57BL/6J mice [1]; 1 mg/kg s.c., pooled sexes): 34.7 total events | HTR (total events) Mean (C57BL/6J mice [1]; 3 mg/kg s.c., female mice): 47.2 total events | HTR (total events) Mean (C57BL/6J mice [1]; 3 mg/kg s.c., male mice): 29.4 total events | HTR (total events) Mean (C57BL/6J mice [1]; 3 mg/kg s.c., pooled sexes): 38.3 total events | HTR (total events) Mean (C57BL/6J mice [1]; 10 mg/kg s.c., female mice): 21.8 total events | HTR (total events) Mean (C57BL/6J mice [1]; 10 mg/kg s.c., male mice): 18.7 total events | HTR (total events) Mean (C57BL/6J mice [1]; 10 mg/kg s.c., pooled sexes): 20.3 total events | ED50 (C57BL/6J mice [1]; female mice, ascending limb of dose-response curve, read-out: HTR ♀ ED50 (95% CI)): 0.31 mg/kg | ED50 (C57BL/6J mice [1]; male mice, ascending limb of dose-response curve, read-out: HTR ♂ ED50 (95% CI)): 0.17 mg/kg | ED50 (C57BL/6J mice [1]; pooled male and female mice, read-out: HTR ♂+♀ ED50 (95% CI)): 0.22 mg/kg | Duration of HTR effect in the session (C57BL/6J mice [1]; peak/active doses, 30 min session): trended to baseline levels by the end of the testing session | Time of peak effects on HTR post drug administration (C57BL/6J mice [1]; s.c., both sexes, 30 min session): 5 to 10 min | HTR ♀ Emax (95% CI) (C57BL/6J mice [1]; s.c., female mice): 43 (35–54) HTR events | HTR ♀ Emax (95% CI) (C57BL/6J mice [1]; s.c., female mice, listed as psilocybin): 43 HTR events | HTR ♂ Emax (95% CI) (C57BL/6J mice [1]; s.c., male mice): 35 (30–40) HTR events | HTR ♂ Emax (95% CI) (C57BL/6J mice [1]; s.c., male mice, listed as psilocybin): 35 HTR events | HTR ♂+♀ Emax (95% CI) (C57BL/6J mice [1]; s.c., pooled male and female mice): 38 (33–47) HTR events | Body Temp Δ (°C) Mean (C57BL/6J mice [2]; 0.03 mg/kg s.c., female mice): 0.2 °C | Body Temp Δ (°C) Mean (C57BL/6J mice [2]; 0.03 mg/kg s.c., male mice): -0.4 °C | Body Temp Δ (°C) Mean (C57BL/6J mice [2]; 0.03 mg/kg s.c., pooled sexes): -0.1 °C | Body Temp Δ (°C) Mean (C57BL/6J mice [2]; 0.1 mg/kg s.c., female mice): 0.1 °C | Body Temp Δ (°C) Mean (C57BL/6J mice [2]; 0.1 mg/kg s.c., male mice): 0.3 °C | Body Temp Δ (°C) Mean (C57BL/6J mice [2]; 0.1 mg/kg s.c., pooled sexes): 0.2 °C | Body Temp Δ (°C) Mean (C57BL/6J mice [2]; 0.3 mg/kg s.c., female mice): 0.04 °C | Body Temp Δ (°C) Mean (C57BL/6J mice [2]; 0.3 mg/kg s.c., male mice): 0.1 °C | Body Temp Δ (°C) Mean (C57BL/6J mice [2]; 0.3 mg/kg s.c., pooled sexes): 0.1 °C | Body Temp Δ (°C) Mean (C57BL/6J mice [2]; 1 mg/kg s.c., female mice): 0.0 °C | Body Temp Δ (°C) Mean (C57BL/6J mice [2]; 1 mg/kg s.c., male mice): -1.0 °C | Body Temp Δ (°C) Mean (C57BL/6J mice [2]; 1 mg/kg s.c., pooled sexes): -0.4 °C | Body Temp Δ (°C) Mean (C57BL/6J mice [2]; 3 mg/kg s.c., female mice): -1.0 °C | Body Temp Δ (°C) Mean (C57BL/6J mice [2]; 3 mg/kg s.c., male mice): -1.3 °C | Body Temp Δ (°C) Mean (C57BL/6J mice [2]; 3 mg/kg s.c., pooled sexes): -1.2 °C | Body Temp Δ (°C) Mean (C57BL/6J mice [2]; 10 mg/kg s.c., female mice): -3.3 °C | Body Temp Δ (°C) Mean (C57BL/6J mice [2]; 10 mg/kg s.c., male mice): -4.1 °C | Body Temp Δ (°C) Mean (C57BL/6J mice [2]; 10 mg/kg s.c., pooled sexes): -3.7 °C | Locomotor Activity (cm) Mean (C57BL/6J mice [3]; 0.03 mg/kg s.c., female mice): 2480.4 cm | Locomotor Activity (cm) Mean (C57BL/6J mice [3]; 0.03 mg/kg s.c., male mice): 2063.8 cm | Locomotor Activity (cm) Mean (C57BL/6J mice [3]; 0.03 mg/kg s.c., pooled sexes): 2272 cm | Locomotor Activity (cm) Mean (C57BL/6J mice [3]; 0.1 mg/kg s.c., female mice): 2686.5 cm | Locomotor Activity (cm) Mean (C57BL/6J mice [3]; 0.1 mg/kg s.c., male mice): 2877.2 cm | Locomotor Activity (cm) Mean (C57BL/6J mice [3]; 0.1 mg/kg s.c., pooled sexes): 2782 cm | Locomotor Activity (cm) Mean (C57BL/6J mice [3]; 0.3 mg/kg s.c., female mice): 3293.8 cm | Locomotor Activity (cm) Mean (C57BL/6J mice [3]; 0.3 mg/kg s.c., male mice): 3064.5 cm | Locomotor Activity (cm) Mean (C57BL/6J mice [3]; 0.3 mg/kg s.c., pooled sexes): 3179 cm | Locomotor Activity (cm) Mean (C57BL/6J mice [3]; 1 mg/kg s.c., female mice): 2900.9 cm | Locomotor Activity (cm) Mean (C57BL/6J mice [3]; 1 mg/kg s.c., male mice): 3532.9 cm | Locomotor Activity (cm) Mean (C57BL/6J mice [3]; 1 mg/kg s.c., pooled sexes): 3188 cm | Locomotor Activity (cm) Mean (C57BL/6J mice [3]; 3 mg/kg s.c., female mice): 2041.8 cm | Locomotor Activity (cm) Mean (C57BL/6J mice [3]; 3 mg/kg s.c., male mice): 2018.9 cm | Locomotor Activity (cm) Mean (C57BL/6J mice [3]; 3 mg/kg s.c., pooled sexes): 2029 cm | Locomotor activity effect (C57BL/6J mice [3]; 10 mg/kg s.c.): decreased locomotor activity | Locomotor Activity (cm) Mean (C57BL/6J mice [3]; 10 mg/kg s.c., female mice): 962.1 cm | Locomotor Activity (cm) Mean (C57BL/6J mice [3]; 10 mg/kg s.c., male mice): 741.5 cm | Locomotor Activity (cm) Mean (C57BL/6J mice [3]; 10 mg/kg s.c., pooled sexes): 851.8 cm | Locomotor activity effect (C57BL/6J mice [3]; 0.3–1 mg/kg s.c.): mild increases in locomotor activity | ED50 doses inducing HTR in C57BL/6J mice (C57BL/6J mice [4]): 0.22 to 0.40 mg/kg

CN(C)CCc1c[nH]c2cccc(O)c12 [Psilocin]
Ki (5-HT2A; 5-HT2A binding affinity (Ki), males and females, male and female mouse brain membranes, summary statement): 1 to 100 nM | Ki (5-HT2A; [3H]M100907 Binding ♀ m5-HT2A Ki, female mouse brain membranes): 113 nM | Ki (5-HT2A; [3H]M100907 Binding ♂ m5-HT2A Ki, male mouse brain membranes): 110 nM | Ki (5-HT1A; 5-HT1A binding affinity (Ki), males and females, male and female mouse brain membranes, summary statement): 1 to 100 nM | Ki (5-HT1A; [3H]8-OH-DPAT Binding ♀ m5-HT1A Ki, female mouse brain membranes): 100 nM | Ki (5-HT1A; [3H]8-OH-DPAT Binding ♂ m5-HT1A Ki, male mouse brain membranes): 113 nM
